Each structure is given as a SMILES string. Where only a bound is given, the exact number is not on record here.

Results on two compounds are retold here after US9062066B2, “Anti-inflammatory compound having inhibitory activity against multiple tyrosine kinases and pharmaceutical composition containing same” (KOREA INSTITUTE OF SCIENCE AND TECHNOLOGY, priority 2010, dated 2015).

Assay [1] relates to house mite allergic substance-induced asthma in mice. The experiment in a line: house mite allergen asthma animal model. In kind it is in vivo. The following applies: for mucin in lung tissue (periodic Schiff staining): 20 ul intratracheal, LCB 03-0110 0.1%, Budesonide 0.03%.
The subject of assay [2] is TNCB-induced atopic dermatitis in Nc/Nga mice. Particulars: 0.1% transdermal every day for two weeks.
The target in another assay is Fgr tyrosine kinase (Homo sapiens (Human), UniProt P09769). Nature of the assay: in vitro Fgr tyrosine kinase inhibition. In kind it is biochemical. The following applies: read-out: % inhibition against Fgr.
Assay [3] concerns TNF-α synthesis in J744A.1 macrophages. Nature of the assay: inhibition of TNF-α synthesis in LPS-activated macrophages (ELISA). Format: cell-based. The following applies: Macrophage, 6 h, read-out: Inhibition (%) of TNF-α synthesis.
Another assay concerns the target Hck tyrosine kinase (Homo sapiens (Human), UniProt P08631). The experiment in a line: in vitro Hck tyrosine kinase inhibition. Particulars: read-out: % inhibition against Hck. Format: biochemical.
The test system of assay [4] is full excisional ear wounds in New Zealand white rabbits. Particulars: 0.1% topical.
The subject of assay [5] is oxazolone-induced skin inflammation of Balb/C mouse ears. The experiment in a line: mouse skin inflammatory model induced by oxazolone (ear thickness). In kind it is in vivo. Particulars: mouse, in vivo. The method, boiled down: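 Oxazolone was used to induce skin inflammation in the ears of 8-week-old Balb/C mice. Ear thickness was measured by caliper before induction, again at 36 h to capture inflammatory swelling, and averaged per group (n=4).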

The test system of assay [6] is IL-12 synthesis in J774A.1 macrophage. Nature of the assay: cells. The following applies: Mus musculus, J774.A1, read-out: inhibition of LPS-induced IL-12 synthesis.
The subject of the next assay is RBL-2H3 mast cells. The experiment in a line: cells. Particulars: Rattus norvegicus, RBL-2H3, read-out: inhibition of hexosaminidase release (degranulation).
In assay [7] the test system is α-smooth muscle actin protein expression in skin fibroblast cells. The experiment in a line: inhibition of α-smooth muscle actin expression in fibroblast activated by type I collagen and TGF-β1 (western blotting). In kind it is cell-based, Balb/C mouse. Particulars: Mus musculus, 48 h, read-out: Inhibition (%) of α-smooth muscle actin increase. The method, boiled down:
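α-Smooth muscle actin protein was detected by western blotting with chemiluminescence on X-ray film. Levels were quantified by densitometry of the band.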
(A western blot detects proteins with antibodies after separation by electrophoresis.)

The target of a further assay is DDR2 tyrosine kinase (Homo sapiens (Human), UniProt Q16832). The experiment in a line: in vitro DDR2 tyrosine kinase inhibition (GST-fused kinase domain). In kind it is biochemical. The following applies: read-out: % inhibition against DDR2.
The next assay deals with DDR1 tyrosine kinase (Homo sapiens (Human), UniProt Q08345). The experiment in a line: in vitro DDR1 tyrosine kinase inhibition (GST-fused kinase domain). Format: biochemical. The following applies: read-out: % inhibition against DDR1.
Assay [8] has as its system NO synthesis in J744A.1 macrophage. Nature of the assay: inhibition of nitric oxide (NO) synthesis in LPS-activated macrophages (Griess reagent). In kind it is cell-based. The following applies: 24 h, read-out: Inhibition (%) of NO synthesis. In general terms: The Griess reaction detects nitrite, a stable product of nitric oxide.
The target of the next assay is Lyn tyrosine kinase (Homo sapiens (Human), UniProt P07948). The experiment in a line: in vitro Lyn tyrosine kinase inhibition. Format: biochemical. Particulars: read-out: % inhibition against Lyn.
Chain of Lyn tyrosine kinase (P07948 whole entry): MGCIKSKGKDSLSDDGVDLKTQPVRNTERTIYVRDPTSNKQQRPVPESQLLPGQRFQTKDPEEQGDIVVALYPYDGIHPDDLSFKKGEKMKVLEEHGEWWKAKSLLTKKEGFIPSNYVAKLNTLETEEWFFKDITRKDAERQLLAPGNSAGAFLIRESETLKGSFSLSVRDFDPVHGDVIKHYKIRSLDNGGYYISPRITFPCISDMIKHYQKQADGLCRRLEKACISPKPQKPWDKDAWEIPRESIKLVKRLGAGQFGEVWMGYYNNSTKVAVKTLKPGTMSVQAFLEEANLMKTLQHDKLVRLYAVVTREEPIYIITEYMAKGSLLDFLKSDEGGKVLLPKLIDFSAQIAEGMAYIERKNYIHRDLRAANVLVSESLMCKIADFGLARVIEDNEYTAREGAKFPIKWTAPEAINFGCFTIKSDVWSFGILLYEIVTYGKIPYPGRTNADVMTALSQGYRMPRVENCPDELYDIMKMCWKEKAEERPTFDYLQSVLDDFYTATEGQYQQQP

Chain of DDR2 tyrosine kinase (Q16832 563-849): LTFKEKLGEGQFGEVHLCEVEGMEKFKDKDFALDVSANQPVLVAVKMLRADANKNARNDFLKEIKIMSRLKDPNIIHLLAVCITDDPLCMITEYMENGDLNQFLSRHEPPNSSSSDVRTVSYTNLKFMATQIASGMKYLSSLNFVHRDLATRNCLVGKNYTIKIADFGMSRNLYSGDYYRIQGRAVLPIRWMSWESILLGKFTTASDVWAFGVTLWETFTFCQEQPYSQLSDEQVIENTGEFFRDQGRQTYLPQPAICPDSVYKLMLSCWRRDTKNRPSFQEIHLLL
Chain of Hck tyrosine kinase (P08631 whole entry): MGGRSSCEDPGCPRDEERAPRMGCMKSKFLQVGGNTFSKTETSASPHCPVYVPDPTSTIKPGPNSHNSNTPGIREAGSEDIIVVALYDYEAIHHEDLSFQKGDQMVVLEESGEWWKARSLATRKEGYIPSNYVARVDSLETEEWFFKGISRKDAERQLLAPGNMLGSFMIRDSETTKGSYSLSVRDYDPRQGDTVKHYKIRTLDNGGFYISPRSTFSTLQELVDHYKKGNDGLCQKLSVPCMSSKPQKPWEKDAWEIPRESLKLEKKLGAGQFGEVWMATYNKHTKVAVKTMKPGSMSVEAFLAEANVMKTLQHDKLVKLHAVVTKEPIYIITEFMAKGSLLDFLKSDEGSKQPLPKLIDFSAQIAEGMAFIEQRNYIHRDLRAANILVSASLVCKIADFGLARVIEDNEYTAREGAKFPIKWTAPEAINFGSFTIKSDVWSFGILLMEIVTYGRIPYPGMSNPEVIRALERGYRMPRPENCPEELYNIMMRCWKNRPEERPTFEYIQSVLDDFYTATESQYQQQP
Chain of Fgr tyrosine kinase (P09769 whole entry): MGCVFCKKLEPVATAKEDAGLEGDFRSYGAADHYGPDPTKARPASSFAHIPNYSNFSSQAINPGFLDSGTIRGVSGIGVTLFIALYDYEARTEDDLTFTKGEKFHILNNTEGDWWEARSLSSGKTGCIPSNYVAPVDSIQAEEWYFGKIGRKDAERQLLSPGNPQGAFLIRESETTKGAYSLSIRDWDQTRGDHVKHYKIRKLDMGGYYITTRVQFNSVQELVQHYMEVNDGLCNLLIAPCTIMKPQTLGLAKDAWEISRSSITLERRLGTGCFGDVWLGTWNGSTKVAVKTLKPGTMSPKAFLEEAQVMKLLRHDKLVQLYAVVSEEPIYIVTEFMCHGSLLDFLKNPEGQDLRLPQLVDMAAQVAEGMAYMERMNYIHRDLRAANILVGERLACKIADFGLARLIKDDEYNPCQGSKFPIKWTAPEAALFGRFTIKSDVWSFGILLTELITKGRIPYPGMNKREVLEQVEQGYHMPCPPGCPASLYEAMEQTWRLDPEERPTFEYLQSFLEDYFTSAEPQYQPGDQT
Chain of DDR1 tyrosine kinase (Q08345 610-905): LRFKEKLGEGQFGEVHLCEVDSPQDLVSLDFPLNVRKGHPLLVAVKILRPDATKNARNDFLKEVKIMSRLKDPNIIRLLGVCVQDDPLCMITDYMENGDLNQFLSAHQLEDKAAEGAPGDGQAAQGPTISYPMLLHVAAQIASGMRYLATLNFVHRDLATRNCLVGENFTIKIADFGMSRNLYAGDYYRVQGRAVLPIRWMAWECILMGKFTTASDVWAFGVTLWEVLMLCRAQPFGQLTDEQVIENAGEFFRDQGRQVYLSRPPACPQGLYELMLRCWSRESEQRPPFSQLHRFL

On to `CCCC1O[C@@H]2C[C@H]3[C@@H]4CCC5=CC(=O)C=C[C@]5(C)[C@H]4[C@@H](O)C[C@]3(C)[C@]2(C(=O)CO)O1` (stereo partly drawn) [Budesonide, reference compound], for which the “mucin in lung tissue (periodic Schiff staining)” value in assay [1] is given as “decreased the extent of the staining”.
As for `Oc1cccc(Nc2ccnc3cc(-c4cccc(CN5CCOCC5)c4)sc23)c1` [LCB 03-0110, 3-(2-(3-(morpholinomethyl)phenyl)thieno[3,2-b]pyridin-7-ylamino)phenol], in assay [2], the “reduction of epidermal thickness compared to the TNCB group” value is reported as “more than 60%”. The “reduction of mast cell count compared to the TNCB group” value in assay [2] was “approximately 25%”. Moreover, the “reduction of serum IgE level compared to the TNCB group” value in [2] is reported as “more than 20%”. Further, the “reduction of transepidermal water loss (TEWL) compared to the TNCB group” value in assay [2] is on record as “more than 30%”. The inhibition – broadly, the share of the control response that was lost under treatment – at 1 µM on Fgr tyrosine kinase is above 80%; at Hck tyrosine kinase, above 80%; in assay [6] it was around 100%; at DDR2 tyrosine kinase, above 90%; on DDR1 tyrosine kinase, above 90%; at Lyn tyrosine kinase it was above 90%. Besides, the results for the inhibition at 10 µM in [3] and in assay [8] were 64% and 97%, respectively. For the same compound, the wound closing rate result in assay [4] (150 μL per wound, every three days, versus carrier solution) is on record as “closed at a higher rate”. In assay [4] (three days after wounding), the “macrophages (F4/80) and activated myoblast cells (alpha smooth muscle actin) in wound tissue” value is “suppressed the activation of macrophages and myoblast cells with a statistical significance”. Besides, the “Inhibition (%) of increase of ear thickness” value in [5] was 72%. The inhibition at 0.3 µM in the assay with RBL-2H3 mast cells was at least 80%. The inhibition at 0.5 µM in assay [7] turned out to be 82%. In addition, in assay [1], the “mucin in lung tissue (periodic Schiff staining)” value is “suppressed mucin synthesis similarly to the positive control”. Further, the “eosinophil penetration into lung tissue” value in assay [1] (20 ul of 0.1% intratracheal) is listed as “suppressed eosinophil penetration into lung tissue”. Further, the “eotaxin in BALF” value in assay [1] (20 ul of 0.1% intratracheal) was “suppression of eotaxin”.
